The numbers were not newly measured in patent publication US8535946B2, “Biomarker to measure drug efficacy in enteropathic disease” (The Board of Trustees of the Leland Stanford Junior …, priority 2007, dated 2013), which cites them from elsewhere.

Molecules are shown by their SMILES.

For this series the following is noted: humans.

Regarding `Cc1ncc2n1-c1ccc(Cl)cc1C(c1ccccc1F)=NC2` [midazolam], the “dose excreted unchanged in the urine” value was “less than 1%”.
